Reference: article PMC7057962, “The Two-Species Model of transketolase explains donor substrate-binding, inhibition and heat-activation” (Scientific Reports, 2020)
Read-outs that look alike come from different tables or passages of the source.

What was measured:
[1] = biological target: T1, E. coli transketolase (TK; TKhigh / TKlow forms) (Escherichia coli, UniProt P27302, D469T/R520Q/S385Y); assay: intrinsic fluorescence quenching (ex […] nm, em […] nm), double-Hill fit; type: binding
T1 construct: gene tktA; N-terminal His6 tag, expressed in E. coli XL10-gold from pQR791; homodimer; purified sample is a mix of TKhigh (oxidised) and TKlow subunits
T1 sequence (P27302 whole entry S385Y/D469T/R520Q): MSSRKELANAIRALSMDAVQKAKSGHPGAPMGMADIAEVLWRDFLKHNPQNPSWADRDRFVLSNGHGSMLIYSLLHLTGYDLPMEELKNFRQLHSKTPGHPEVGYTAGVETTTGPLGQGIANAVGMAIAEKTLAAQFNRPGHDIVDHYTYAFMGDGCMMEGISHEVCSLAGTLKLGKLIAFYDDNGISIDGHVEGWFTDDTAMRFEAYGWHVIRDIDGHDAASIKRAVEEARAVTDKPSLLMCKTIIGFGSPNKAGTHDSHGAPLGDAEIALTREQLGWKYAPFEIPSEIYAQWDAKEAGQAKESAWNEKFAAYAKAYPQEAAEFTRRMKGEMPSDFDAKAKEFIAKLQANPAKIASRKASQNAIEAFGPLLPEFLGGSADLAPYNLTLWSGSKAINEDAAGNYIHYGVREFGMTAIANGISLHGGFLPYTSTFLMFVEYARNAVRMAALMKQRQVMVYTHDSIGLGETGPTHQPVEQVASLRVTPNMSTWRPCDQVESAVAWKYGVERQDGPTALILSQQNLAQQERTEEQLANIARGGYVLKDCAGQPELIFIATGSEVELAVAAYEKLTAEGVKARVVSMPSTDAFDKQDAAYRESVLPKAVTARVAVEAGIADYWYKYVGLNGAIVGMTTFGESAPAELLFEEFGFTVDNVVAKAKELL

[2] = biological target: T2, E. coli transketolase (TK; TKhigh / TKlow forms) (Escherichia coli, UniProt P27302); assay: as above; type: binding; settings: read-out: Kd(high)^HPA
T2 construct: gene tktA; N-terminal His6 tag, expressed in E. coli XL10-gold from pQR791; homodimer; purified sample is a mix of TKhigh (oxidised) and TKlow subunits
T2 sequence (P27302 whole entry): as the sequence (P27302 whole entry S385Y/D469T/R520Q) above, with Y385S, T469D, Q520R counted along it

O=C(O)C(=O)CO [HPA, β-hydroxypyruvate]
Kd ([1]; read-out: Kd(high)^HPA): 3.61 ± 0.31 mM | Kd [2]: 3.42 ± 0.45 mM

Cc1ncc(C[n+]2csc(CCO[P@](=O)(O)OP(=O)(O)O)c2C)c(N)n1 [TPP, thiamine pyrophosphate]
Kd ([1]; read-out: Kd(high)^TPP): 0.0066 ± 0.00164 mM
